Consider six compounds from paper PMC11647683, “Structural Aspects of Mycobacterium tuberculosis DNA Gyrase Targeted by Novel Bacterial Topoisomerase Inhibitors” (ACS Medicinal Chemistry Letters, 2024).

For orientation: IC50 means the point on the concentration scale where inhibition reaches its midpoint. A word on the IC90: it is the point of the concentration-response curve where the effect stands at 90%.

This test concerns M. tuberculosis LP-FQ-RM9. Format: cell-based, Mycobacterium tuberculosis. Particulars: for IC50: read-out: Antituberculosis activity M. tuberculosis LP-FQ-RM9 IC50; for IC90: read-out: Antituberculosis activity M. tuberculosis LP-FQ-RM9 IC90.

A value given as a limit tells only on which side of the number the result lay.

On to `COc1ccc2nccc(CCN3CCC(NCc4ccc(Br)c(F)c4)CC3)c2n1` [Compound 1], for which the IC50 was determined as 380 ± 50 nM and the IC90 is 520 ± 145 nM.

For the compound `COc1ccc2nccc(CCN3CCC(NCc4ccc(I)c(F)c4)CC3)c2n1` [Compound 2], the IC50 stood at 420 ± 80 nM and the IC90 was found to be 580 ± 180 nM. For `COc1ccc2nccc(CCN3CCC(NCc4cc(F)c(Cl)c(F)c4)CC3)c2n1` [Compound 3], in that order: 290 nM and 430 nM. Turning to `COc1ccc2nccc(CCN3CCC(NCc4cc(F)c(Br)c(F)c4)CC3)c2n1` [Compound 4], the 90% effect concentration (IC90) is 260 nM. Same read-out and setting: then `COc1ccc2nccc(C(O)CC3CCC(NCc4cc(F)c(Br)c(F)c4)CC3)c2n1` (centres unmarked) [Compound 5], with 1000 ± 75 nM. For `C[C@H]1COc2c(N3CCN(C)CC3)c(F)cc3c(=O)c(C(=O)O)cn1c23` [Levofloxacin, reference compound], the IC50 was more than 10000 nM and the IC90 is more than 10000 nM. Moreover, for the setting “result in words”, the “activity against the fluoroquinolone-resistant strain” value is reported as “no activity was observed”.
